From patent US20250353873A1, “COMPOUNDS AND METHODS FOR MODULATING APOE EXPRESSION” (Ionis Pharmaceuticals, Inc., priority 2024, published 2025) come the findings set out here.

For series [1], the system named is human APOE RNA. Kind of series: Dose-dependent inhibition of human APOE RNA in HepG2 cells, electroporation, 50,000 cells per well, RT-PCR normalized to GAPDH (Example 4, Tables 8-10). Format: cell-based. The following applies: HepG2, electroporation, 24-hour treatment. The protocol:
Modified oligonucleotides selected from the examples above were tested at various doses in HepG2 cells. The modified oligonucleotides were tested in a series of experiments that had the same culture conditions. Each experiment is identified in separate tables below.
HepG2 cells plated at a density of 50,000 cells per well were treated by electroporation with various concentrations of modified oligonucleotide as specified in the tables below. […] APOE RNA levels were measured using the human primer probe set RTS3073 (forward sequence […], designated herein as SEQ ID NO: 7; reverse sequence CCATCAGCGCCCTCAGTT, designated herein as SEQ ID NO: 8; probe sequence […], designated herein as SEQ ID NO:9). APOE RNA levels were normalized to human GAPDH. […] Results are presented as percent APOE RNA, relative to the amount of APOE RNA in untreated control cells (UTC).

Series [2] has as its system human APOE RNA. Kind of series: Activity in APOE C57BL/6NTac-Apoeem7250 knock-in mice, single ICV bolus, 4 weeks (Example 10). As to conditions: single ICV bolus 300 μg, 4 weeks post treatment, normalized to mouse Ppia. It is filed as in vivo. How it is done:
Modified oligonucleotides described above were tested in the APOE C57BL/6NTac-Apoeem7250 knock-in mouse model described above.
APOE C57BL/6NTac-Apoeem7250 knock-in mice were divided into groups of 2-4 mice each. Each mouse received a single ICV bolus of 300 μg of modified oligonucleotide. A group of 3-4 mice received a single ICV bolus with PBS as a negative control.
Four weeks post treatment, mice were sacrificed and RNA was extracted from cortical brain tissue and spinal cord for quantitative real-time RT-PCR analysis of RNA expression of APOE using human primer probe set RTS3073 (described herein above). APOE RNA levels were normalized to mouse Ppia. Mouse Ppia was amplified using primer probe set m_cyclo24 (described herein above). Results are presented as percent human APOE RNA relative to the amount of human APOE RNA in PBS treated animals, (% control). Each experiment is identified in separate tables below.

Strand notation (5' to 3'): a small letter for the sugar, then the base; units joined by * are phosphorothioate-linked, units joined directly phosphodiester-linked; [ ] holds rarer units or linkages, { } end groups; capitals alone tell only the bases. [ms] = mesyl phosphoramidate linkage; k = constrained ethyl (cEt); [5mC] = 5-methylcytosine; d = 2'-deoxy (DNA)

For “1746806 (k[5mC]*kT*dT[ms]dG[ms]kG*dT[ms]dG[ms]dA[ms]dA[ms]dT*d[5mC]*dT*dT*dT*dA[ms]dT*dT[ms]kA*kA*kA; antisense) [Compound 1746806]”, the “APOE RNA (% UTC)” value with human APOE RNA [1] (5 nM) was 122 % UTC; with human APOE RNA [1] (13 nM), 101 % UTC; in the series on human APOE RNA [1] (33 nM) it was 107 % UTC; with human APOE RNA [1] (82 nM) it was 91 % UTC; with human APOE RNA [1] (205 nM) it was 83 % UTC; in the series with human APOE RNA [1] (512 nM), 80 % UTC. Also, the “APOE RNA (% UTC)” value in the series with human APOE RNA [1] (1,280 nM) turned out to be 57 % UTC; in the series on human APOE RNA [1] (3,200 nM) it was 39 % UTC; in the series with human APOE RNA [1] (8,000 nM), 25 % UTC; in the series with human APOE RNA [1] (20,000 nM) it was 37 % UTC. Half-maximal inhibition in the series on human APOE RNA [1] (IC50) required 2580 nM. Also, in the series with human APOE RNA [2], the “APOE RNA (% control) Cortex” value was 92 % control. Moreover, the “APOE RNA (% control) Spinal Cord” value in the series on human APOE RNA [2] was found to be 75 % control.

With “1746786 (k[5mC]*kT*dT[ms]dG[ms]kG*dT[ms]dG[ms]dA[ms]dA[ms]dT*d[5mC]*dT*dT*dT*dA[ms]dT*kT*kA*dA[ms]kA; antisense) [Compound 1746786]”, the “APOE RNA (% UTC)” value stood at 85 % UTC in the series on human APOE RNA [1] (5 nM); 93 % UTC with human APOE RNA [1] (13 nM); 90 % UTC with human APOE RNA [1] (33 nM); 75 % UTC with human APOE RNA [1] (82 nM); 87 % UTC with human APOE RNA [1] (205 nM); 63 % UTC in the series on human APOE RNA [1] (512 nM). The “APOE RNA (% UTC)” value in the series on human APOE RNA [1] (1,280 nM) is 39 % UTC; with human APOE RNA [1] (3,200 nM), 34 % UTC; in the series on human APOE RNA [1] (8,000 nM), 18 % UTC; in the series with human APOE RNA [1] (20,000 nM), 14 % UTC. For the same substance, the 50% inhibitory concentration (IC50) – broadly, the concentration that inhibits the measured activity by half – with human APOE RNA [1] was 1010 nM. Moreover, the “APOE RNA (% control) Cortex” value in the series with human APOE RNA [2] is recorded as 79 % control. In addition, in the series with human APOE RNA [2], the “APOE RNA (% control) Spinal Cord” value is recorded as 52 % control.

In the case of “1746807 (k[5mC]*kT*dT[ms]dG[ms]dG[ms]kT*dG[ms]dA[ms]dA[ms]dT*d[5mC]*dT*dT*dT*dA[ms]dT*dT[ms]kA*kA*kA; antisense) [Compound 1746807]”, the “APOE RNA (% UTC)” value in the series with human APOE RNA [1] (5 nM) came out at 119 % UTC; in the series on human APOE RNA [1] (13 nM) it was 127 % UTC; in the series with human APOE RNA [1] (33 nM), 111 % UTC; in the series on human APOE RNA [1] (82 nM) it was 86 % UTC; in the series on human APOE RNA [1] (205 nM) it was 88 % UTC; in the series on human APOE RNA [1] (512 nM), 62 % UTC. Moreover, the “APOE RNA (% UTC)” value with human APOE RNA [1] (1,280 nM) stood at 52 % UTC; with human APOE RNA [1] (3,200 nM) it was 29 % UTC; with human APOE RNA [1] (8,000 nM), 16 % UTC; in the series with human APOE RNA [1] (20,000 nM) it was 30 % UTC. The 50% inhibitory concentration (IC50) in the series with human APOE RNA [1] was determined as 1430 nM. Further, in the series with human APOE RNA [2], the “APOE RNA (% control) Cortex” value is on record as 90 % control. Moreover, in the series on human APOE RNA [2], the “APOE RNA (% control) Spinal Cord” value is 119 % control.

As to “1746812 (k[5mC]*dT[ms]dT[ms]dG[ms]kG*kT*dG[ms]dA[ms]dA[ms]dT*d[5mC]*dT*dT*dT*dA[ms]dT*dT[ms]kA*kA*kA; antisense) [Compound 1746812]”, the “APOE RNA (% UTC)” value came out at 105 % UTC in the series on human APOE RNA [1] (5 nM); 109 % UTC with human APOE RNA [1] (13 nM); 90 % UTC with human APOE RNA [1] (33 nM); 102 % UTC with human APOE RNA [1] (82 nM); 86 % UTC in the series on human APOE RNA [1] (205 nM); 76 % UTC in the series with human APOE RNA [1] (512 nM). In addition, the “APOE RNA (% UTC)” value in the series with human APOE RNA [1] (1,280 nM) is listed as 51 % UTC; in the series with human APOE RNA [1] (3,200 nM), 31 % UTC; in the series on human APOE RNA [1] (8,000 nM), 19 % UTC; in the series on human APOE RNA [1] (20,000 nM), 11 % UTC. This substance returned a 50% inhibitory concentration (IC50) in the series with human APOE RNA [1] of 1500 nM. For the same substance, in the series with human APOE RNA [2], the “APOE RNA (% control) Cortex” value amounted to 68 % control. Besides, in the series with human APOE RNA [2], the “APOE RNA (% control) Spinal Cord” value came out at 79 % control.
